This note sets out measurements from PMC3265452 (PLoS Neglected Tropical Diseases, 2012).

Each structure is given as a SMILES string. Counter-ions that a name gives are not always drawn.

The target in this assay is AaDOP2 (Aedes aegypti, UniProt H6D5H2). Briefly: AaDOP2 antagonist screen of the LOPAC1280 library (HEK-CRELuc-Aadop2 cells, luminescence). Format: cell-based.
Sequence of AaDOP2 (H6D5H2 1-476): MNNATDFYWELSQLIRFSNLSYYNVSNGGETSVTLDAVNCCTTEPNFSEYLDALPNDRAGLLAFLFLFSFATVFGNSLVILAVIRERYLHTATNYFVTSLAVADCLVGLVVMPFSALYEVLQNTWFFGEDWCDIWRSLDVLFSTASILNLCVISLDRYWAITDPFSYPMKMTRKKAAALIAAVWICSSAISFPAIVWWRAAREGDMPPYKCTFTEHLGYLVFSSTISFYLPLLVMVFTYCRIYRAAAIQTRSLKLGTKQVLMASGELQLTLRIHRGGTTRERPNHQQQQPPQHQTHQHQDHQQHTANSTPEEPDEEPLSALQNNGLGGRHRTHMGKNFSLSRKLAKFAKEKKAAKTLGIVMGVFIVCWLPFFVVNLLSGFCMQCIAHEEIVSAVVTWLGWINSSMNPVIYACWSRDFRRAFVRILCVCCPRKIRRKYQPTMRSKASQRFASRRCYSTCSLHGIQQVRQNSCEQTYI
Consider `C[N+](C)(C)CC(=O)O` [Compound 170, Betaine hydrochloride], for which the “Compound effect (percent receptor signaling in presence of test compound, relative lux units relative to the SCH23390 control)” value was 86.

For `C[N+](C)(C)CC=O` [Compound 171, Betaine aldehyde chloride], the “Compound effect (percent receptor signaling in presence of test compound, relative lux units relative to the SCH23390 control)” value was found to be 99.

On to `CC(/C=C/c1cccc(Oc2ccc(F)cc2)c1)N(O)C(N)=O` (centres unmarked) [Compound 173, BWB70C], for which the “Compound effect (percent receptor signaling in presence of test compound, relative lux units relative to the SCH23390 control)” value turned out to be 118.

`O=c1[nH]c(=O)n([C@H]2C[C@H](O)[C@@H](CO)O2)cc1Br` [Compound 174, 5-Bromo-2'-deoxyuridine]: the “Compound effect (percent receptor signaling in presence of test compound, relative lux units relative to the SCH23390 control)” value is recorded as 84.

Turning to `CC(C)COCC(CN(Cc1ccccc1)c1ccccc1)N1CCCC1` (centres unmarked) [Compound 175, Bepridil hydrochloride], the “Compound effect (percent receptor signaling in presence of test compound, relative lux units relative to the SCH23390 control)” value worked out at 78.

With `CN(C)CC[C@@H](c1ccc(Br)cc1)c1ccccn1` [Compound 176, (+)-Brompheniramine maleate], the “Compound effect (percent receptor signaling in presence of test compound, relative lux units relative to the SCH23390 control)” value amounted to 97.

Regarding `Oc1ccc(-c2nc(-c3ccncc3)c(-c3ccc(F)cc3)[nH]2)cc1` [Compound 178, SB 202190], the “Compound effect (percent receptor signaling in presence of test compound, relative lux units relative to the SCH23390 control)” value worked out at 65.

As to `CC(C)(C)c1ccc(S(=O)(=O)/C=C/C#N)cc1` [Compound 179, Bay 11-7085], the “Compound effect (percent receptor signaling in presence of test compound, relative lux units relative to the SCH23390 control)” value is listed as 76.

As to `CC(C)NCC(O)COc1ccc(CCOCC2CC2)cc1` (centres unmarked) [Compound 180, Betaxolol hydrochloride], the “Compound effect (percent receptor signaling in presence of test compound, relative lux units relative to the SCH23390 control)” value was 95.

For the compound `N=C(N)c1ccccc1` [Compound 181, Benzamidine hydrochloride], the “Compound effect (percent receptor signaling in presence of test compound, relative lux units relative to the SCH23390 control)” value is reported as 87.

Consider `C[C@H]1C[C@H]2[C@@H]3CCC4=CC(=O)C=C[C@]4(C)[C@@]3(F)[C@@H](O)C[C@]2(C)[C@@]1(O)C(=O)CO` [Compound 182, Betamethasone], for which the “Compound effect (percent receptor signaling in presence of test compound, relative lux units relative to the SCH23390 control)” value amounted to 89.

For `O=C1CC2(CCCC2)CC(=O)N1CCCCN1CCN(c2ncccn2)CC1` [Compound 183, Buspirone hydrochloride], the “Compound effect (percent receptor signaling in presence of test compound, relative lux units relative to the SCH23390 control)” value was 83.

As to `NC(CO)C(=O)NNCc1ccc(O)c(O)c1O` (centres unmarked) [Compound 184, Benserazide hydrochloride], the “Compound effect (percent receptor signaling in presence of test compound, relative lux units relative to the SCH23390 control)” value is given as 94.

Turning to `C[C@H]1CCC/C=C/[C@@H]2C[C@H](O)C[C@H]2[C@H](O)/C=C/C(=O)O1` [Compound 185, Brefeldin A from Penicillium brefeldianum], the “Compound effect (percent receptor signaling in presence of test compound, relative lux units relative to the SCH23390 control)” value worked out at 124.

With `CCCC1O[C@@H]2C[C@H]3[C@@H]4CCC5=CC(=O)C=C[C@]5(C)[C@H]4[C@@H](O)C[C@]3(C)[C@]2(C(=O)CO)O1` (some centres unmarked) [Compound 186, Budesonide], the “Compound effect (percent receptor signaling in presence of test compound, relative lux units relative to the SCH23390 control)” value turned out to be 128.

Turning to `CCCCOc1cc(CC2CNC(=O)N2)ccc1OC` (centres unmarked) [Compound 189, Ro 20-1724], the “Compound effect (percent receptor signaling in presence of test compound, relative lux units relative to the SCH23390 control)” value came to 122.

For `CC(C)C[C@H](NC(=O)[C@@H](O)[C@H](N)Cc1ccccc1)C(=O)O` [Compound 190, Bestatin hydrochloride], the “Compound effect (percent receptor signaling in presence of test compound, relative lux units relative to the SCH23390 control)” value is 145.

Consider `CC[N+](C)(C)Cc1ccccc1Br` [Compound 191, Bretylium tosylate], for which the “Compound effect (percent receptor signaling in presence of test compound, relative lux units relative to the SCH23390 control)” value is on record as 97.

As to `CN1CCc2cc3c(cc2[C@H]1[C@@H]1OC(=O)c2c1ccc1c2OCO1)OCO3` [Compound 192, (+)-Bicuculline], the “Compound effect (percent receptor signaling in presence of test compound, relative lux units relative to the SCH23390 control)” value was 94.

On to `COc1ccccc1N1CCN(CCCCNC(=O)c2ccc3ccccc3c2)CC1` [Compound 193, BP 897], for which the “Compound effect (percent receptor signaling in presence of test compound, relative lux units relative to the SCH23390 control)” value was 54.
